Where “and” joins values, the source holds several entries; their conditions need not be identical. Equal entries are not always repeated.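 Five concentrations, 48 hours, 96-well plates. At the GI50, growth is halved. TGI: total growth inhibition.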
What was measured:
Assay in all cases: NCI tumour cell line growth inhibition, 48 h
[1] = tested on: T-47D breast
[2] = tested on: A549 NSCLC
[3] = tested on: HS 578T breast
[4] = tested on: MCF7 breast
[5] = tested on: XF 498 CNS
[6] = tested on: KM20L2 colon
[7] = tested on: DMS 273 small cell lung
[8] = tested on: DMS 114 small cell lung
[9] = tested on: M19-MEL melanoma

| SMILES | GI50 [1] | TGI [1] | GI50 [2] | TGI [2] | GI50 [3] | TGI [3] | GI50 [4] [µM] | TGI [4] [µM] | TGI [5] [µM] | TGI [6] [µM] | TGI [7] [µM] | TGI [8] | GI50 [6] [µM] | GI50 [8] [µM] | GI50 [9] [µM] | TGI [9] [µM] |
| --- | --- | --- | --- | --- | --- | --- | --- | --- | --- | --- | --- | --- | --- | --- | --- | --- |
| OC(CN1CC1)C(O)CN1CC1 (configuration not stated) | > 50 µg/mL | > 50 µg/mL | > 50 µg/mL | > 50 µg/mL | > 50 µg/mL | > 50 µg/mL |  |  |  |  |  |  |  |  |  |  |
| NC(=O)c1cccc(Nc2nccc(Nc3cccc(F)c3)n2)c1 | 4.38 µM | 16.5 µM | 7.45 µM | > 25 µM | 6.23 µM | > 25 µM | 11 | > 25 |  |  |  |  |  |  |  |  |
| C[C@H]1[C@H](C)CC[C@]2(C(=O)NCCNCCN)CC[C@]3(C)C(=CC[C@@H]4[C@@]5(C)CCC(=O)C(C)(C)[C@@H]5CC[C@]43C)[C@H]12 |  |  |  |  | 1.7 µM | 3.74 µM | 1.7 | 3.25 |  |  |  |  |  |  |  |  |
| CCCCCCCCCCN=C(c1ccc(N(C)C)cc1)c1ccc(N(C)C)cc1 | 0.6 µM | > 54 µM | 2.53 µM | > 77.6 µM | 1.02 µM | 39.1 µM | 0.356 | > 100 |  |  |  |  |  |  |  |  |
| CN(C)Cc1c[nH]c2c(NCCN)c3c(c(NCCN)c12)C(=O)c1ccccc1C3=O | 1.82 µM | 14 µM | 3.39 µM | 16.2 µM | 3.38 µM | 10.9 µM | 19 | 94.1 |  |  |  |  |  |  |  |  |
| CC(=O)N[C@H](C(=O)N[C@@H](CCCNC(=N)N)C(=O)N[C@@H](CCCCN)C(=O)N[C@@H](CCCNC(=N)N)C(=O)N[C@]1(C)CCCCCC/C=C\CCC[C@@](C)(C(=O)N[C@@H](CCCNC(=N)N)C(=O)N[C@@H](CCC(=O)O)C(=O)N[C@@H](CC(C)C)C(=O)N[C@H](C(=O)N[C@@H](CCC(=O)O)C(N)=O)C(C)C)NC(=O)[C@H](CCC(N)=O)NC(=O)[C@H](CC(C)C)NC(=O)[C@H](CC(C)C)NC(=O)[C@H](CCCNC(=N)N)NC(=O)[C@H](CCCNC(=N)N)NC(=O)[C@H](CC(C)C)NC1=O)C(C)C | 1.03 µM | 2.31 µM | 3.4 µM | 27.6 µM | 1.46 µM | 4.14 µM | 2 | 32.9 |  |  |  |  |  |  |  |  |
| CCCCCCCCCCCCCCCCCCNC(=O)[C@H]1CSC(c2cccs2)N1 (some centres not stated) | 0.892 µM | 1.84 µM | 1.69 µM | > 50 µM | 1.17 µM | 2.98 µM | 0.764 | 1.58 |  |  |  |  |  |  |  |  |
| COCCOCCOCc1n(Cc2ccc3ccccc3n2)c2ccccc2[n+]1Cc1ccc2ccccc2c1 | 0.293 µM | 2.08 µM | 0.748 µM | 10.6 µM | 0.964 µM | 3.66 µM | 0.317 | 1.34 |  |  |  |  |  |  |  |  |
| CC1(C)N=C(N)N=C(N)N1c1ccc(OCC(=O)Nc2ccccc2)c(Cl)c1 | > 65.8 µM | > 100 µM | 0.0916 µM | > 71.8 µM | > 100 µM | > 100 µM | 0.886 | > 100 |  |  |  |  |  |  |  |  |
| C=C1CC2(OC1=O)C(=O)N(CCCN1C(=O)C3(CC(=C)C(=O)O3)c3ccccc31)c1ccccc12 (configuration not stated) |  |  | 10.4 µM | 24 µM | 3.43 µM | 51.5 µM | 1.4 | 4.45 |  |  |  |  |  |  |  |  |
| Cc1cc(Nc2nc(SCc3ccc(C(=O)Nc4ccc(F)cc4N)cc3)nn3cccc23)n[nH]1 | 1.12 µM | 52.6 µM | 0.886 µM | 36.8 µM | 0.429 µM | > 100 µM | 0.0518 | 29.3 |  |  |  |  |  |  |  |  |
| CCSc1nc(N)c2cn[nH]c2n1 | 17.6 µM | 56.4 µM | 44.6 µM | > 100 µM | 22.2 µM | 70.1 µM | 23 | 60.3 |  |  |  |  |  |  |  |  |
| COc1ccccc1/C=C/C(=O)/C=C/c1ccccc1O | 0.488 µM | 4.52 µM | 1.27 µM | 3.73 µM | 2.25 µM | 11.7 µM | 0.195 | 1.73 |  |  |  |  |  |  |  |  |
| COc1ccc(-c2nnc(N3CCN(C(=O)CN4CCN(c5ccc(OC)cc5)CC4)CC3)nc2-c2ccc(OC)cc2)cc1 | 2.78 µM | 9.36 µM | 25.6 µM | > 100 µM | 2.84 µM | 9.2 µM | 1.76 | 3.56 |  |  |  |  |  |  |  |  |
| O=C(O)CCC(NC(=S)S)C(=O)O.[Na+].[Zn+2] (configuration not stated) | > 50 µM | > 50 µM | > 50 µM | > 50 µM | > 50 µM | > 50 µM | > 50 | > 50 |  |  |  |  |  |  |  |  |
| C[C@H](Cn1ncnn1)Nc1ncc2cc(Oc3ccc(F)cc3F)c(=O)n(C)c2n1 | > 25 µM | > 25 µM | > 25 µM | > 25 µM | > 25 µM | > 25 µM | > 25 | > 25 |  |  |  |  |  |  |  |  |
| CSc1c(C)c(C)nn1-c1ccccc1 |  |  |  | > 100 µM |  |  |  |  | > 100 | > 100 | > 100 | > 100 µM |  |  |  |  |
| Cn1cc(-c2csc(-c3cn(C)c4ccccc34)n2)c2cnccc21 |  |  | 2.38 µM | 5.01 µM | 2.16 µM | 4.65 µM | 0.324 | 1.66 |  |  |  |  |  |  |  |  |
| CCCCCCCCCCCC[n+]1ccccc1 (tested in a mixture with another compound) | 0.375 µM | 3.94 µM | 1.68 µM | 4.43 µM | 1.71 µM | 5.15 µM | 1.04 | 5.5 |  |  |  |  |  |  |  |  |
| Cc1ccc2nc3c(Cl)c(C)c(=O)cc-3sc2c1 |  |  |  | > 100 µM |  |  |  |  |  | > 100 | > 100 | > 1 µM and 76 µM | > 100 | 25.4 | 46.4 | > 100 |
| Cn1c2ccccc2c2c(=O)c3ccccc3[nH]c21 |  |  | 26.9 µM | > 100 µM | > 100 µM | > 100 µM | 30.3 | > 100 |  |  |  |  |  |  |  |  |
| O=C1C(SCCO)=C(SCCO)C(=O)c2ccccc21 |  | > 27.5 µM |  | 3.7 µM |  | 4.99 µM |  | 2.36 |  |  |  |  |  |  |  |  |
| O=c1c2c3c(sc2n2c(-c4cc(-c5ccccc5)nn4-c4ccccc4)nnc2n1Cc1ccccc1)CCCC3 | > 100 µM | > 100 µM | > 100 µM | > 100 µM | 48 µM | > 100 µM | > 100 | > 100 |  |  |  |  |  |  |  |  |
| O=C(c1ccc2ccccc2c1)c1c(C(F)(F)F)n([O-])c2ccc(Cl)cc2[n+]1=O | 0.453 µM | 1.78 µM | 1.71 µM | 3.21 µM | 1.79 µM | 3.72 µM | 0.417 | 1.43 |  |  |  |  |  |  |  |  |
| COc1ccccc1-c1cc(=O)c2ccc(C)nc2[nH]1 |  | > 100 µM |  | > 100 µM |  | > 100 µM |  | > 100 |  |  |  |  |  |  |  |  |

— PubChem BioAssay (NCI)
